The text below walks through data of patent US7494997B2, “Amide derivative” (Nippon Shinyaku Co., Ltd., priority 2002, dated 2009).

In one data set the test system is K562 cells. Put plainly: Cell growth inhibitory effect, K562 cells (WST-8, 72 hours). Conditions: for IC50: Homo sapiens, K562, 72 h, read-out: K562 cells (IC50 value: μM); for Ratio (U937 cells/K562 cells): ratio of IC50 values U937 cells/K562 cells.
Another data set deals with U937 cells. Put plainly: Cell growth inhibitory effect, U937 cells (WST-8, 72 hours). Conditions: Homo sapiens, U-937, 72 h, read-out: U937 cells (IC50 value: μM).

`Cc1ccc(NC(=O)c2ccc(CN3CCN(C)CC3)c(F)c2)cc1Nc1nccc(-c2cccnc2)n1` [Example 4, 3-fluoro-4-(4-methylpiperazin-1-ylmethyl)-N-{4-methyl-3-[4-(3-pyridyl)pyrimidin-2-ylamino]phenyl}benzamide]: the melting point is 197 to 199 °C (dec.). In the data set with K562 cells, the IC50 came to 0.033 µM. Moreover, the IC50 in the data set with U937 cells came to 12.4 µM.
`Cc1cc(C(=O)Nc2ccc(C)c(Nc3nccc(-c4cccnc4)n3)c2)ccc1CN1CCN(C)CC1` [Example 21, 3-methyl-4-(4-methylpiperazin-1-ylmethyl)-N-{4-methyl-3-[4-(3-pyridyl)pyrimidin-2-ylamino]phenyl}benzamide] gave a melting point of 192 to 193 °C. In addition, in the data set on K562 cells, the IC50 was 0.0053 µM and the “Ratio (U937 cells/K562 cells)” value is over 1886.8. For the same compound, the IC50 with U937 cells was over 10 µM.
With `Cc1ccc(NC(=O)c2cc(Br)c(CN3CCN(C)CC3)c(Br)c2)cc1Nc1nccc(-c2cccnc2)n1` [Example 24, 3,5-dibromo-4-(4-methylpiperazin-1-ylmethyl)-N-{4-methyl-3-[4-(3-pyridyl)pyrimidin-2-ylamino]phenyl}benzamide], the melting point was 227 to 229 °C. Besides, in the data set on K562 cells, the IC50 came out at 0.0015 µM and the “Ratio (U937 cells/K562 cells)” value was 4860.0. Moreover, the IC50 in the data set on U937 cells amounted to 7.29 µM.
As for `COc1cc(C(=O)Nc2ccc(C)c(Nc3nccc(-c4cccnc4)n3)c2)cc(OC)c1CN1CCN(C)CC1` [Example 25, 3,5-dimethoxy-4-(4-methylpiperazin-1-ylmethyl)-N-{4-methyl-3-[4-(3-pyridyl)pyrimidin-2-ylamino]phenyl}benzamide], the melting point is 201 to 214 °C (dec.). In the data set on K562 cells, the IC50 is 0.03 µM and the “Ratio (U937 cells/K562 cells)” value was determined as 566.7. In the data set with U937 cells, the IC50 turned out to be 17 µM.
With `Cc1ccc(NC(=O)c2ccc(CN3CCN(C)CC3)c(C(F)(F)F)c2)cc1Nc1nccc(-c2cncnc2)n1` [Example 6, 4-(4-methylpiperazin-1-ylmethyl)-3-trifluoromethyl-N-{4-methyl-3-[4-(5-pyrimidinyl)pyrimidin-2-ylamino]phenyl}benzamide], the melting point is 231 to 233 °C (dec.). In addition, the IC50 with K562 cells was 0.0005 µM. In addition, in the data set on U937 cells, the IC50 is 5.39 µM.
On to `COc1cc(C(=O)Nc2ccc(C)c(Nc3nccc(-c4cccnc4)n3)c2)ccc1CN1CCN(C)CC1` [Example 23, 3-methoxy-4-(4-methylpiperazin-1-ylmethyl)-N-{4-methyl-3-[4-(3-pyridyl)pyrimidin-2-ylamino]phenyl}benzamide], for which the melting point was 171 to 172 °C (dec.). Also, in the data set on K562 cells, the IC50 amounted to 0.0094 µM and the “Ratio (U937 cells/K562 cells)” value is given as over 1063.8. The IC50 with U937 cells was over 10 µM.
Consider `Cc1ccc(NC(=O)c2ccc(CN3CCN(C)CC3)c(Br)c2)cc1Nc1nccc(-c2cccnc2)n1` [Example 1, 3-bromo-4-(4-methylpiperazin-1-ylmethyl)-N-{4-methyl-3-[4-(3-pyridyl)pyrimidin-2-ylamino]phenyl}benzamide], for which the melting point was 202 to 203 °C (dec.). Moreover, in the data set on K562 cells, the IC50 was 0.0022 µM. For the same compound, in the data set on U937 cells, the IC50 stood at 4.8 µM.
In the case of `CCN(CC)Cc1ccc(C(=O)Nc2ccc(C)c(Nc3nccc(-c4cccnc4)n3)c2)cc1Br` [Example 30, 3-bromo-4-(N,N-diethylaminomethyl)-N-{4-methyl-3-[4-(3-pyridyl)pyrimidin-2-ylamino]phenyl}benzamide], the melting point was in the range of 172 to 173 °C. For the same compound, in the data set on K562 cells, the IC50 was 0.022 µM and the “Ratio (U937 cells/K562 cells)” value was over 454.5. Besides, in the data set with U937 cells, the IC50 was over 10 µM.
As to `Cc1ccc(NC(=O)c2ccc(CN(C)C)c(Br)c2)cc1Nc1nccc(-c2cccnc2)n1` [Example 29, 3-bromo-4-(N,N-dimethylaminomethyl)-N-{4-methyl-3-[4-(3-pyridyl)pyrimidin-2-ylamino]phenyl}benzamide], the melting point is 154 to 155 °C. In the data set with K562 cells, the IC50 stood at 0.017 µM and the “Ratio (U937 cells/K562 cells)” value is recorded as over 588.2. In addition, in the data set on U937 cells, the IC50 is over 10 µM.
